The values below come from US20080171788A1, “Medicament For Irritable Bowel Syndrome” (priority 2005, published 2008).

“Also recorded” adds a separate entry of the source. Where only a bound is given, the exact number is not on record here.

One test deals with male Wister rats. The test can be described thus: Rat restraint stress-induced defecation model. The format is in vivo. To be noted: for evacuation suppressing action: 10 mg/kg p.o., used independently, 10 mg/kg; for number of excreted stools, comparison with the non-administration group: each of the 1, 3 and 10 mg/kg administration groups, N=10. The protocol: IBS-treating effect of the medicine of the invention was evaluated using a test method in which the amount of evacuations is measured by applying a restriction stress to rats (cf. J. Pharmacol. Exp. Ther. (1992) 261, 297-303). […] Each drug to be tested was administered to male Wister rats (body weight 250 to 320 g, 10 animals for each group), and a restraint stress was loaded 30 minutes thereafter. A restraint stress cage (KN-468, 265 mm in width×95 mm in length×200 mm in height, mfd. by Natsume Seisakusho, Tokyo) was used for the restraint stress loading, and the number of excreted stool was counted 1 hour after the stress loading. […] The control means the number of stools at the time of no stress loading, namely the reference value.

The target of a further test is α1 receptor. The test can be described thus: Affinity for other receptors: α1. The format is binding.
For another test, the target named is 5-HT2B receptor (Homo sapiens, UniProt P41595). To be noted: in comparison with 5-HT1A, 5-HT1B, 5-HT2A, 5-HT2C, 5-HT3, 5-HT6, 5-HT7, α1, M1 and D2 receptors; cited from earlier work.
5-HT2B receptor, sequence (P41595 whole entry): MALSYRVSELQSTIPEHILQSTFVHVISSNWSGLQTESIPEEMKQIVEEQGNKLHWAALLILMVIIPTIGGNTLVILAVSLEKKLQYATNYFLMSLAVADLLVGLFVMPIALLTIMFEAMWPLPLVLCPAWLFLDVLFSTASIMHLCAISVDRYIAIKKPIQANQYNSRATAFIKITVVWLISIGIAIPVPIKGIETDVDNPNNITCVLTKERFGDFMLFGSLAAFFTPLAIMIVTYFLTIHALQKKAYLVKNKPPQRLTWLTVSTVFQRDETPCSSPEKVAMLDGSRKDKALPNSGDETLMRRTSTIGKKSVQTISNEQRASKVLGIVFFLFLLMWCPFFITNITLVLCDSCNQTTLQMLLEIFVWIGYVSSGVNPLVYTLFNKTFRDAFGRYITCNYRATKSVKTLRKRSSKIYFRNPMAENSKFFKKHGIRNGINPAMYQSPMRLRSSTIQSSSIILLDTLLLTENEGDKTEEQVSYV

With `Cl.NC(N)=NC(=O)c1ccc2c(c1)C1(CCCO1)c1ccccc1-2` (single isomer, unassigned) [Production Example 60b], the evacuation suppression action result in the test with male Wister rats (3 mg/kg (p.o.)) is “suppression action similar to the level of Production Example 3”.
Take `Cl.NC(N)=NC(=O)c1ccc2c(c1)C(O)c1ccccc1-2` (centres unmarked) [Production Example 3, N-(diaminomethylene)-9-hydroxy-9H-fluorene-2-carboxamide hydrochloride]: the IC50 – broadly, the concentration at which inhibition is half-maximal – against α1 receptor is ≥ 1000 nM. Also, the evacuation suppression action result with male Wister rats (3 mg/kg intraperitoneally (i.p.)) is “significant suppression action”.
As to `CC(C)c1cc(-c2ccc(F)c3ccccc23)nc(N)n1` [RS-127445, 2-amino-4-(4-fluoronaphtho-1-yl)-6-isopropylpyrimidine], in the test on male Wister rats, the evacuation suppressing action result is “did not show the evacuation suppressing action; also recorded: do not show the reaction” and the “number of excreted stools, comparison with the non-administration group” value is reported as “Significant difference was not found”. The “selectivity for 5-HT2B receptor” value on 5-HT2B receptor is listed as ≥ 1,000 times.
For `CC1CCN(CC[C@H]2CCCN2S(=O)(=O)c2cccc(O)c2)CC1` [SB-269970, (R)-3-(2-(2-(4-methylpiperidine-1-yl)ethyl)pyrrolidine-1-sulfonyl)phenol], in the test on male Wister rats, the evacuation suppressing action result is listed as “did not show the evacuation suppressing action; also recorded: do not show the reaction” and the “number of excreted stools, comparison with the non-administration group” value is “Significant difference was not found”.
